Source: patent US20200383983A1, “CGRP ANTAGONISTS FOR THE TREATMENT OF MEDICATION OVERUSE HEADACHE, POST-TRAUMATIC HEADACHE, POST-CONCUSSION SYNDROME AND VERTIGO” (Allergan Sales, LLC, priority 2019, published 2020)

Assays:
[1] = stated generally, small molecules compared with monoclonal antibodies; cited from earlier work
[2] = Case scenario: patient with migraine without aura and medication overuse headache (triptan overuse); assay type: in vivo, human; settings: 50 mg once a day, patient averaging 25 doses of oral triptan per month
Excerpt: (§1) The following non-limiting examples provide those of ordinary skill in the art with possible case scenarios and specific methods to treat conditions within the scope of the present disclosure and are not intended to limit the scope of the disclosure.
A person visits a headache clinic with almost daily migraine attacks. Their migraines have been ongoing since they were […]. […] Eventually, however, the migraine attacks became longer, lasting up to 3 or 4 days and forcing them to take 4 or 5 doses of triptan per attack. Currently, they are averaging 25 doses of oral triptan per month. They are diagnosed with migraine without aura and medication overuse headache. They are treated with ubrogepant at a dose of 50 mg, once a day.

[3] = Case scenario: patient with chronic migraine and medication overuse headache, weaning off Fiorinal; assay type: in vivo, human
Excerpt: as §1
[…] This responded well to Excedrin at that time. As they became older their headaches became more frequent and by the time they were in their late 20's they had headache on more than half the days of the month. Excedrin was no longer effective, and their primary care physician prescribed Fiorinal (aspirin, caffeine and barbiturate compound). […] […] Their primary care physician, on routine blood work noted: worsening renal and liver function tests. The patient reported depression and disability related to their headache disorder. They could not work or participate in family events. They were referred to a neurologist who specialized in headache disorders. They diagnosed them with episodic migraine without aura that had transformed to chronic migraine with associated medication overuse headache. They also diagnosed end organ damage with hepatic and renal damage secondary to analgesic overuse. They recommended a preventive treatment and that they taper off of Fiorinal. The patient started Topiramate as a migraine preventive and despite their best efforts they were unable to wean off of Fiorinal, due to breakthrough headache. They returned to the Neurologist and they prescribed Ubrogepant 50 mg daily for 10 days. […] They continued Topiramate treatment and used Ubrogepant 50 mg a day as needed for breakthrough headache. […] They were able to return to work and to participate in family events.

[4] = Case scenario: patient with post-traumatic headache (PTH), subjective pain rating; assay type: in vivo, human; settings: for pain rating at worst, subjective rating scale of zero (no pain) to 10 (worst pain): before treatment 10; for pain rating at best, subjective rating scale of zero (no pain) to 10 (worst pain): before treatment eight; for pain rating on average, subjective rating scale of zero (no pain) to 10 (worst pain): before treatment nine
Excerpt: as §1
A person complains of right-sided frontal headaches. The patient stated the headaches began 3 months ago after accidentally being hit in the face at the right frontal, maxillary, and zygomatic bones with a heavy instrument. They deny any loss of consciousness at the time of the incident and describes the pain as a “constant achy” to “stabbing” pain primarily over the right eye and right zygomatic bone. They complain of intermittent blurred vision when the pain becomes “stabbing.” They also complain of intermittent tinnitus. On a subjective rating scale of zero (no pain) to 10 (worst pain), the patient rates their pain as eight at best, nine on average, and 10 at worst. Results from a radiographic scan of the skull, CT scan of the brain, and MRI scan of the brain and cervical spine are normal. Results from slit lamp and neurologic testing are also normal. The patient is diagnosed to have PTH. The patient can be treated with ubrogepant at a dose of 100 mg, once a day. The treatment with ubrogepant can reduce the pain experienced by the patient and the patient can rate their pain as five at best, six on average, and nine at worst.
A person complains of right-sided frontal headaches. The patient stated the headaches began 3 months ago after accidentally being hit in the face at the right frontal, maxillary, and zygomatic bones with a heavy instrument. They deny any loss of consciousness at the time of the incident and describes the pain as a “constant achy” to “stabbing” pain primarily over the right eye and right zygomatic bone. They complain of intermittent blurred vision when the pain becomes “stabbing.” They also complain of intermittent tinnitus. On a subjective rating scale of zero (no pain) to 10 (worst pain), the patient rates their pain as eight at best, nine on average, and 10 at worst. Results from a radiographic scan of the skull, CT scan of the brain, and MRI scan of the brain and cervical spine are normal. Results from slit lamp and neurologic testing are also normal. The patient is diagnosed to have PTH. The patient can be treated with erenumab at a dose of 70 mg by subcutaneous administration. A month after the erenumab administration, the patient can rate their pain as five at best, six on average, and nine at worst.

[5] = 70 mg subcutaneous, a month after administration

C[C@@H]1[C@H](c2c(F)ccc(F)c2F)C[C@H](NC(=O)c2cnc3c(c2)C[C@@]2(C3)C(=O)Nc3ncccc32)C(=O)N1CC(F)(F)F [atogepant]
half-life [1]: measured in hours

N[C@@H]1c2cccnc2[C@H](OC(=O)N2CCC(n3c(=O)[nH]c4ncccc43)CC2)CC[C@H]1c1cccc(F)c1F [rimegepant]
half-life [1]: measured in hours

C[C@@H]1[C@H](c2ccccc2)C[C@H](NC(=O)c2cnc3c(c2)C[C@@]2(C3)C(=O)Nc3ncccc32)C(=O)N1CC(F)(F)F [ubrogepant]
intensity and frequency of migraine [2]: can reduce the intensity and frequency of migraine | need of as-needed use for breakthrough headache ([3]; 50 mg a day as needed, after 3 months): once or twice a month | effect on migraine attacks and recurrence ([3]; 50 mg a day as needed, continued Topiramate): effectively ended their migraine attacks and they had no recurrence requiring re-treatment | need of as-needed use for breakthrough headache ([3]; 50 mg a day as needed, first month after weaning off Fiorinal): twice a week | weaning off the overused medication (Fiorinal) ([3]; 50 mg daily for 10 days, with Topiramate as preventive): able to successfully wean off of Fiorinal | pain rating at worst, subjective rating scale of zero (no pain) to 10 (worst pain) ([4]; 100 mg once a day): nine | pain rating at best, subjective rating scale of zero (no pain) to 10 (worst pain) ([4]; 100 mg once a day): five | pain rating on average, subjective rating scale of zero (no pain) to 10 (worst pain) ([4]; 100 mg once a day): six | half-life [1]: measured in hours

B1: erenumab (antibody, chains of the INN, looked up, V domains shown)
VH: QVQLVESGGGVVQPGRSLRLSCAASGFTFSSFGMHWVRQAPGKGLEWVAVISFDGSIKYSVDSVKGRFTISRDNSKNTLFLQMNSLRAEDTAVYYCARDRLNYYDSSGYYHYKYYGMAVWGQGTTVTVSS
VL: QSVLTQPPSVSAAPGQKVTISCSGSSSNIGNNYVSWYQQLPGTAPKLLIYDNNKRPSGIPDRFSGSKSGTSTTLGITGLQTGDEADYYCGTWDSRLSAVVFGGGTKLTVL
pain rating at worst, subjective rating scale of zero (no pain) to 10 (worst pain) [4, 5]: nine | pain rating at best, subjective rating scale of zero (no pain) to 10 (worst pain) [4, 5]: five | pain rating on average, subjective rating scale of zero (no pain) to 10 (worst pain) [4, 5]: six
